Assay results: PMC8469457, “Proline-Specific Fungal Peptidases: Genomic Analysis and Identification of Secreted DPP4 in Alkaliphilic and Alkalitolerant Fungi” (Journal of Fungi, 2021)

Biological target: T1, DPP4 of S. alkalinus F11 (secreted DPP4, culture filtrate) (Sodiomyces alkalinus, UniProt A0A3N2PX53)
T1 construct: gene SODALDRAFT_276413; native secreted enzyme, unpurified 14-day culture filtrate; link of ROT38925.1 to the assayed activity is inferred
T1 sequence (A0A3N2PX53 27-782): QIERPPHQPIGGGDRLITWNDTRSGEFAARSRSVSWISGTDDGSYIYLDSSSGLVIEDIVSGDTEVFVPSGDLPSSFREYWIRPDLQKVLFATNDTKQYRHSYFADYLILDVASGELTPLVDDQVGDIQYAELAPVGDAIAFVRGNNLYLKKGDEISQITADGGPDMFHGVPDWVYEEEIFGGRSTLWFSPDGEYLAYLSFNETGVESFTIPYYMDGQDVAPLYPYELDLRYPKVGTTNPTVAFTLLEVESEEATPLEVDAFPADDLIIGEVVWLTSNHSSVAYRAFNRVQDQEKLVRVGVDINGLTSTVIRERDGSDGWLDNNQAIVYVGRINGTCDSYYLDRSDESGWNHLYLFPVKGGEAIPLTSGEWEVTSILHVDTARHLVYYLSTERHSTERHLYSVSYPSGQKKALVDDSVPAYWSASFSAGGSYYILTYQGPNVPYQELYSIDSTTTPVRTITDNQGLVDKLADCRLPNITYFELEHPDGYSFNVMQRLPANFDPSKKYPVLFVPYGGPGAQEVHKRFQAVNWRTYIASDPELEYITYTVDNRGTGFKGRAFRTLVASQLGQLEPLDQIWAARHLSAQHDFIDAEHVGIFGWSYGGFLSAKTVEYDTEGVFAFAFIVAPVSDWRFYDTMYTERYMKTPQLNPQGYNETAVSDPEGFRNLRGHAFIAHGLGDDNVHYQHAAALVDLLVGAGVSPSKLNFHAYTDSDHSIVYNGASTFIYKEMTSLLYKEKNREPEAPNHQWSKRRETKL
Assay: residual hydrolysis of Ala-Pro-pNa, absorbance at […] nm, culture filtrate
Format: biochemical
Details: read-out: % residual activity at 0.25 mM

`CC[C@H](C)[C@H](N)C(=O)N1CCC[C@H]1C(=O)N[C@H](C(=O)O)[C@@H](C)CC` [diprotin A] was tested. Which remaining activity at 250 µM did it give?
Its remaining activity at 250 µM is 3.2%.
